# Measured values: patent publication US20220064204A1, “AMORPHOUS FORM OF 5-BROMOPYRIDIN-3-YL 3-DEOXY-3-[4-(3,4,5-TRIFLUOROPHENYL)-1H-1,2,3-TRIAZOL-1-YL]-1-THIO-ALPHA-D-GALACTOPYRANOSIDE” (GALECTO BIOTECH AB, priority 2018, published 2022)
# Read-outs that look alike come from different tables or passages of the source.
# What was measured:
# [1] = Dissolution of filled capsules / pellets in biorelevant media (FaSSIF); format: physicochemical; details: 18 hours
# Experimental: As an alternative to poloxamer 188, the surfactant SLS was also evaluated to aid in the dispersion of the SDD.
# The resulting drug layered pellets were analysed by UV-HPLC to determine the drug loading as well as by SEM, XRPD and Dissolution in biorelevant media.
# The dissolution profile of the drug-layered pellets was compared to the dissolution profiles of the API alone as well an ASD formulation (physical mixture of SDD (API:HPMC603=1:2) and poloxamer 188) (see FIG. 4).
# [2] = Solubility of the crystalline compound (statement); format: physicochemical; details: highly crystalline compound
# [3] = First in human study, safety and tolerability, single and multiple ascending doses; format: in vivo; details: oral
# Experimental: The compound of formula I is tested in a Phase 1, randomized, double-blind, placebo-controlled, first-in-human study in which the safety, tolerability, and pharmacokinetics of orally administered compound of formula I is evaluated in healthy adult subjects and adult subjects with indication of suspected Nonalcoholic steatohepatitis (NASH) and liver fibrosis.
# This study aims to obtain safety, tolerability and pharmacokinetic data when the compound of formula I is administered orally as single doses and as multiple doses to healthy subjects. In addition, an optional part has been included to obtain safety and tolerability data when the compound of formula I is administered orally as multiple doses to subjects with suspected Nonalcoholic steatohepatitis (NASH) and liver fibrosis.
# [4] = Material characterization by TGA and dynamic vapor sorption (DVS); format: physicochemical; details: crystalline compound
# [5] = Phase 1 first-in-human study, single oral dose pharmacokinetics in healthy subjects (drug layered formulation capsules); format: in vivo; details: plasma; for half-life / AUC(0-t) / Tmax / AUC(0-inf): human; for half-life / AUC(0-t) / Tmax: po; for half-life / AUC(0-t) / AUC(0-inf): geometric mean; for AUC(0-t): read-out: AUC0-24; for Tmax / Tlog: median
# Experimental: The first part of this study aims to obtain safety, tolerability and pharmacokinetic data when the compound of formula I is administered orally as a single dose in healthy subjects using the above drug layered formulation.
# Experimental Data from Healthy Subject Cohort A1: 5 mg Compound of Formula I (API)
# 6 healthy subjects received 5 mg of compound of formula I capsules orally as a single dose in the fasted state, and 2 subjects receive placebo. The first 2 subjects (1 active and 1 placebo) were dosed 24 hours before the remaining subjects. Blood samples for pharmacokinetic analysis of plasma API concentrations were obtained by venipuncture before dosing, and then at 0.5, 1, 1.5, 2, 3, 4, 6, 8, 12, 16, 24, 36, and 48 hours post dose. […]
# Experimental Data from Healthy Subject Cohort A3 Fasted: 50 mg Compound of Formula I (API)
# (§1) 6 healthy subjects received 50 mg of compound of formula I capsules orally as a single dose in the fasted state, and 2 subjects receive placebo. The first 2 subjects (1 active and 1 placebo) were dosed 24 hours before the remaining subjects. Blood samples for pharmacokinetic analysis of plasma API concentrations were obtained by venipuncture before dosing, and then at 0.5, 1, 1.5, 2, 3, 4, 6, 8, 12, 16, 24, 36, and 48 hours post dose.
# Experimental Data from Healthy Subject Cohort A3 Fed: 50 mg Compound of Formula I (API)
# as §1, with “fed” for “fasted”, “dose. […]” for “dose.”
# Experimental Data from Healthy Subject Cohort A5: 100 mg Compound of Formula I (API)
# as §1, with “100” for “50”
# Experimental Data from Healthy Subject Cohort A6: 200 mg Compound of Formula I (API)
# as §1, with “200” for “50”
# Experimental Data from Healthy Subject Cohort A7: 400 mg Compound of Formula I (API)
# as §1, with “400” for “50”
# [6] = Phase 1 study, multiple oral dose (twice a day for 10 days) pharmacokinetics in healthy subjects; format: in vivo, human; details: fasted state; for half-life: po
# Experimental: The second part of this study aims to obtain safety, tolerability and pharmacokinetic data when the compound of formula I is administered orally dosed twice a day for 10 days in healthy subjects using the above drug layered formulation.
# Experimental Data from Healthy Subject Cohort B1: 50 mg Compound of Formula I (API)
# (§2) 8 healthy subjects received 50 mg of compound of formula I capsules and 3 subjects receive placebo orally twice a day for 10 days. Blood samples for pharmacokinetic analysis of plasma API concentrations were obtained by venipuncture before dosing on day 1, and then at 0.5, 1, 1.5, 2, 3, 4, 6, 8, 12, 16, 24, 36, and 48 hours post dose. Blood sampling was repeated on day 10.
# Experimental Data from Healthy Subject Cohort B2: 100 mg Compound of Formula I
# as §2, with “received 100” for “received 50”, “16, 24” for “16, 24, 36, and 48”, “repeated at” for “repeated on”
# [7] = 5 mg, single oral dose 5 mg, fasted state
# [8] = 20 mg, single oral dose 20 mg, fasted state
# [9] = 50 mg, single oral dose 50 mg (1 × 50 mg), fasted state
# [10] = 50 mg, single oral dose 50 mg (1 × 50 mg), fed state
# [11] = 100 mg, single oral dose 100 mg, fasted state
# [12] = 200 mg, single oral dose 200 mg, fasted state
# [13] = 400 mg, single oral dose 400 mg, fasted state
# [14] = single oral dose 100 mg, fasted state
# [15] = single oral dose 200 mg, fasted state
# [16] = single oral dose 400 mg, fasted state
# [17] = 50 mg BID oral, Day 10, healthy subjects, geometric mean
# [18] = 100 mg BID oral, Day 10, healthy subjects, geometric mean
compound,measurement,setting,value
"OC[C@H]1O[C@H](Sc2cncc(Br)c2)[C@H](O)[C@@H](n2cc(-c3cc(F)c(F)c(F)c3)nn2)[C@H]1O [GB1211, 5-Bromopyridin-3-yl 3-deoxy-3-[4-(3,4,5-trifluorophenyl)-1H-1,2,3-triazol-1-yl]-1-thio-α-D-galactopyranoside]",API released in the dissolution media,[1]; FaSSIF,less than 12%
same,API concentration in FaSSIF,[1]; dissolution,0.011 mg/mL
same,solubility,[2],relatively low solubility
same,safety and tolerability in man,[3],safe and well tolerated
same,hydrate formation,[4]; DVS,no indication of hydrate formation
same,hygroscopicity,[4]; dynamic vapor sorption (DVS),not hygroscopic
same,half-life,[5]; [7],11.2 h
same,AUC(0-t),[5]; [7],585 ng·h/mL
same,Tmax,[5]; [7],2 h
same,half-life,[5]; [8],12.4 h
same,AUC(0-t),[5]; [8],2670 ng·h/mL
same,half-life,[5]; [9],12.6 h
same,AUC(0-t),[5]; [9],3400 ng·h/mL
same,Tmax,[5]; [9],3 h
same,half-life,[5]; [10],12.8 h
same,AUC(0-t),[5]; [10],3820 ng·h/mL
same,Tmax,[5]; [10],5 h
same,AUC(0-t),"[5]; 50 mg, single oral dose 50 mg (10 × 5 mg), fasted state",5770 ng·h/mL
same,half-life,[5]; [11],12.1 h
same,AUC(0-t),[5]; [11],4900 ng·h/mL
same,Tmax,[5]; [11],3.5 h
same,half-life,[5]; [12],15.1 h
same,AUC(0-t),[5]; [12],9050 ng·h/mL
same,Tmax,[5]; [12],3.5 h
same,half-life,[5]; [13],14.5 h
same,AUC(0-t),[5]; [13],15100 ng·h/mL
same,Tmax,[5]; [13],4 h
same,AUC(0-inf),[5]; [14],6360 ng·h/mL
same,AUC(0-inf),[5]; [15],13100 ng·h/mL
same,AUC(0-inf),[5]; [16],21500 ng·h/mL
same,Tlog,"[5]; single oral dose 5 mg, fasted state",0.00 h
same,Tlog,"[5]; single oral dose 20 mg, fasted state",0.00 h
same,Tlog,"[5]; single oral dose 50 mg (1 × 50 mg), fasted state",0.00 h
same,Tlog,"[5]; single oral dose 50 mg (1 × 50 mg), fed state",0.75 h
same,Tlog,"[5]; single oral dose 50 mg (10 × 5 mg), fasted state",0.00 h
same,Tlog,[5]; [14],0.00 h
same,Tlog,[5]; [15],0.00 h
same,Tlog,[5]; [16],0.00 h
same,Cmin,[6]; [17],249 ng/mL
same,RAAUC,[6]; [17],2.31
same,Cmin,[6]; [18],338 ng/mL
same,RAAUC,[6]; [18],2.11
same,half-life,"[6]; human, plasma, 50 mg, 50 mg BID oral, Day 1, geometric mean, unreliable due to short sampling duration 0-12 hours, exploratory",7.34 h
same,half-life,"[6]; human, plasma, 50 mg, 50 mg BID oral, Day 10, healthy subjects, geometric mean",20.2 h
same,half-life,"[6]; human, plasma, 100 mg, 100 mg BID oral, Day 1, geometric mean, unreliable due to short sampling duration 0-12 hours, exploratory",7.04 h
same,half-life,"[6]; human, plasma, 100 mg, 100 mg BID oral, Day 10, healthy subjects, geometric mean",12.5 h
same,Cmax,"[6]; human, plasma, 50 mg BID oral, Day 1, healthy subjects, geometric mean",330 ng/mL
